Test results taken from patent US20150079105A1, “TREATMENT OF ACUTE INFLAMMATION IN THE RESPIRATORY TRACT” (UCL Business PLC, priority 2012, published 2015).
Entries after “also recorded” stand apart in the source; their conditions may differ.

Key:
[1] = test system: LPS challenged mice; assay: LPS-induced acute lung inflammation in mice: BAL fluid cell counts, MPO, serum albumin; assay type: in vivo
[2] = test system: CCL7, Gr-1+ neutrophils; assay: Immunohistochemical staining of CCL7 and Gr-1 in lung sections of LPS challenged mice; assay type: in vivo; conditions: 5 mg/kg 30 min after LPS; lungs fixed after 3 h
Procedure: FIG. 16. Mice were challenged with 125 μg/kg LPS (i.n.) and whole lungs inflated and fixed after 3 h. Immunohistochemical staining of CCL7 (a, b an c) or Gr-1 (d, e and f) was compared between saline treated controls and LPS challenged mice with or without treatment with the PAR1 antagonist RWJ-58259 (5 mg/kg) dosed therapeutically after 30 min. [AEW]. Endothelial-epithelial barrier disruption was measured by ELISA as the amount of serum albumin in BAL fluid from mice three hours after LPS (125 μg/kg i.n.) challenge (g) or S. pneumoniae challenge (h) with and without the PAR1 antagonist RWJ-58259 (5 mg/kg) dosed therapeutically i.p. after 30 min.
The observation that neutrophil migration downstream of PAR1 activation was mediated by the non-classical neutrophil chemokine, CCL7, was unexpected. In order to determine the cellular source of CCL7 the immunolocalization of CCL7 and Gr-1+ neutrophils in serial lung sections from saline treated and LPS-challenged mice was examined. In saline treated control lung, there was weak CCL7 staining which was mainly restricted to the bronchial epithelium (FIG. 16a). […] Only weak immunolocalization was detected in the alveolar epithelium. […] Gr-1 specific immunostaining was next performed in order to detect neutrophils in serial lung sections. No Gr-1 staining could be detected in saline treated controls (FIG. 16d). […]

[3] = 5 mg/kg i.p. 30 min after LPS 125 μg/kg i.n., 3 h after LPS, vs LPS alone
[4] = 5 mg/kg i.p. 30 min after LPS, 3 h

Question: Which “neutrophil numbers in the airspaces (BAL fluid)” value [1, 3] does the source give for `NCC[C@H](NC(=O)[C@H](Cc1ccc(F)c(F)c1)NC(=O)Nc1ccc2c(CN3CCCC3)nn(Cc3c(Cl)cccc3Cl)c2c1)C(=O)NCc1ccccc1` [RWJ-58259] here?
Answer: significantly decreased

Question: What about the “total cell numbers in the airspaces (BAL fluid)” value [1, 3] of the same compound?
Answer: significantly decreased

Question: And the “Gr-1+(F4/80−) neutrophils recovered from BAL fluid and whole lung preparations, flow cytometry” value [1, 4]?
Answer: a decrease

Question: What about the “LPS-induced neutrophil myeloperoxidase activity in lung homogenates” value [1, 4] of the same compound?
Answer: reduced

Question: And the “macrophage numbers in BAL fluid” value [1, 4]?
Answer: remained unchanged

Question: And the “serum albumin levels in BAL fluid (alveolar-capillary barrier disruption)” value ([1]; 5 mg/kg i.p. 30 min after LPS, 3 h, vs LPS alone, listed as PAR1 antagonist)?
Answer: significantly decreased; also recorded: significantly reduced

Question: And the neutrophil recruitment ([1]; 5 mg/kg i.p. 30 min after LPS, 6 h following LPS challenge)?
Answer: reduced

Question: And the neutrophil recruitment ([1]; 5 mg/kg i.p. 30 min after LPS, 24 h following LPS challenge)?
Answer: reduced

Question: What about the “Gr-1 immunoreactivity in lung sections” value [2] of the same compound?
Answer: decreased

Question: What about the “LPS-induced CCL7 immunoreactivity in lung sections” value [2] of the same compound?
Answer: reduced
